Read-outs that look alike come from different tables or passages of the source.
Columns and labels:
[1] = biological target: full length recombinant Pim-1 (Homo sapiens (Human), UniProt P11309); experiment: Pim enzyme assay (HTRF, phosphorylation of biotinylated-BAD (S112) peptide), Pim-1; assay type: biochemical
[2] = biological target: full length recombinant Pim-2 (Homo sapiens (Human), UniProt Q9P1W9); experiment: Pim enzyme assay (HTRF, phosphorylation of biotinylated-BAD (S112) peptide), Pim-2; assay type: biochemical; settings: read-out: Pim2_IC50
[3] = system: KMS-12-BM myeloma cells; experiment: Pim cell assay KMS12 (phospho-BAD and total BAD); assay type: cell-based; settings: Homo sapiens, 2 h
Description: The assay for determination of the antiproliferative activity of multiple Pim inhibitors in the KMS-12-BM myeloma cells measures levels of phospho-BAD and total BAD. It was conducted as follows: […] The cells were then incubated overnight at 37° C., 5% CO2. […] This dilution in DMSO was then diluted again into cell growth medium. […] The cell plates were then incubated with compound for 2 hours at 37° C., 5% CO2. After a two h incubation, the compound-containing medium was removed. […] The cell plates containing lysis buffer were then immediately stored at -70° C. These prepared lysates were then assayed for phospho and total BAD according to the manufacturer's protocols (Meso Scale Diagnostics, Cat#[…]-3 & #[…]-3). The plates were read on the MSD Sector Imager 6000, and results were calculated according to the assay protocols ((% Phosphoprotein=((2×Phospho signal)/(Phospho signal+Total signal))×100)).

[4] = system: Pim-2 stably transfected U2OS human osteogenic sarcoma line; experiment: Pim cell assay U2OS (phospho-BAD normalized against total BAD), Pim-2 transfected; assay type: cell-based; settings: Homo sapiens; U2OS cells, Pim-2 transfected; read-out: U2OS Pim2_Cell_IC50
[5] = system: Pim-1 stably transfected U2OS human osteogenic sarcoma line; experiment: Pim cell assay U2OS (phospho-BAD normalized against total BAD), Pim-1 transfected; assay type: cell-based; settings: Homo sapiens, U2OS
[6] = biological target: full length recombinant Pim-3 (Homo sapiens (Human), UniProt Q86V86); experiment: Pim enzyme assay (HTRF, phosphorylation of biotinylated-BAD (S112) peptide), Pim-3; assay type: biochemical; settings: Pim-3 enzyme assay; read-out: Pim3 IC50
Procedure, shortened: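 IC50 values were fitted with a 4-parameter logistic model to percent-of-control HTRF signal (Eu anti-phospho-BAD S112 antibody/streptavidin-APC). Reactions used full-length Pim-3 and biotin-BAD (S112) peptide, ran 1 h 30 min at RT (22 °C) in Hepes pH 7.0 buffer with BSA and DTT, and were stopped by 3 mM EDTA.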

[7] = HTRF, 10-point curve, high dose 1 uM, 2 h at RT, read-out: Pim_1_IC50
[8] = HTRF, 10-point curve, high dose 1 uM, 45 min at RT
[9] = Pim-1 enzyme assay, read-out: Pim_1_IC50
[10] = read-out: U2OS Pim1_Cell_IC50, U2OS cells, Pim-1 transfected

Chain of full length recombinant Pim-1 (P11309 whole entry): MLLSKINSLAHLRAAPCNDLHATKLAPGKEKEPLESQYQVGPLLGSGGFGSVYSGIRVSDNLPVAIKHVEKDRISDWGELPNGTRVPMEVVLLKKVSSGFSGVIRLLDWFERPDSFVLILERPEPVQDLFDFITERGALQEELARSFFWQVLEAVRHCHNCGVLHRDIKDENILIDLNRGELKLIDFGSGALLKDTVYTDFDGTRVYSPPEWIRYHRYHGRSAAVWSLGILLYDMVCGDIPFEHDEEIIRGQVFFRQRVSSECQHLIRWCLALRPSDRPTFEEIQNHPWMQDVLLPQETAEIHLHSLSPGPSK
Chain of full length recombinant Pim-2 (Q9P1W9 whole entry): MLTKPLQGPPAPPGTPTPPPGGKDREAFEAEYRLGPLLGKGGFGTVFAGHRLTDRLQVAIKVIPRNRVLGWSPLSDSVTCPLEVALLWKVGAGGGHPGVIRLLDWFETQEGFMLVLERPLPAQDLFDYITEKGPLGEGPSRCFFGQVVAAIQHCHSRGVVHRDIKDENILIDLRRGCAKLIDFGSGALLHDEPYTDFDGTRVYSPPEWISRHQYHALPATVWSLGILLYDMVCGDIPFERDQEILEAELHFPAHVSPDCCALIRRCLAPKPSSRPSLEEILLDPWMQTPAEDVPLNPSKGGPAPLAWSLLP

Row | SMILES | IC50 [1, 7] [nM] | IC50 [2, 8] [nM] | IC50 ([3]; read-out: KMS12_IC50) [µM] | IC50 [1, 9] [nM] | IC50 ([2]; Pim-2 enzyme assay) [nM] | IC50 [4] [nM] | IC50 ([5]; read-out: U2OS Pim1_Cell_IC50) [nM] | IC50 [6] [nM] | also measured
1 | CC(C)Nc1nnc(-c2ccc3[nH]cc(-c4ccnc(C5CC5)n4)c3c2)o1 [Example 301, 5-(3-(2-cyclopropyl-4-pyrimidinyl)-1H-indol-5-yl)-N-(1-methylethyl)-1,3,4-oxadiazol-2-amine] | 2.54 | 4.65 | 0.945 |  |  |  |  |  | 
2 | CC(C)Nc1nnc(-c2cc3c(-c4cncc(C5CC5)n4)c[nH]c3cc2F)o1 [Example 280, 5-(3-(6-cyclopropyl-2-pyrazinyl)-6-fluoro-1H-indol-5-yl)-N-(1-methylethyl)-1,3,4-oxadiazol] |  | 8.04 | 3.83 |  |  |  |  |  | IC50 [1]: 4.71 nM
3 | CC(C)Nc1nnc(-c2ccc3[nH]cc(-c4ncc(C(N)=O)c(C5CC5)n4)c3c2)o1 [Example 281, 4-cyclopropyl-2-(5-(5-((1-methylethyl)amino)-1,3,4-oxadiazol-2-yl)-1H-indol-3-yl)-5-pyrimidinecarboxamide] | 1.19 | 2.15 | 1.28 |  |  |  |  |  | 
4 | CC(C)Nc1nnc(-c2cc3c(-c4nccc(C5CC5)n4)c[nH]c3cc2F)o1 [Example 279, 5-(3-(4-cyclopropyl-2-pyrimidinyl)-6-fluoro-1H-indol-5-yl)-N-(1-methylethyl)-1,3,4-oxadiazol-2-amine] | 2.38 | 1.88 | 0.746 |  |  |  |  |  | 
5 | CC(C)Nc1nc(-c2c[nH]c3ccc(-c4nnc(NC(C)C)o4)cc23)cc(=O)[nH]1 [Example 288, 2-(isopropylamino)-6-(5-(5-(isopropylamino)-1,3,4-oxadiazol-2-yl)-1H-indol-3-yl)pyrimidin-4(3H)-one] | 2.44 | 14.3 | 4.2 |  |  |  |  |  | 
6 | CC(C)Nc1nccc(-c2c[nH]c3ccc(-c4nnc(NC(C)C)o4)cc23)n1 [Example 287, N-isopropyl-5-(3-(2-(isopropylamino)pyrimidin-4-yl)-1H-indol-5-yl)-1,3,4-oxadiazol-2-amine] | 4.15 |  |  |  |  |  |  |  | IC50 [2]: 11.1 nM; IC50 ([3]; read-out: KMS12_IC50 (uM)): 1.56 µM
7 | CC(C)Nc1nnc(-c2ccc3[nH]cc(-c4cc(=O)[nH]c(C5CC5)n4)c3c2)o1 [Example 300, 2-cyclopropyl-6-(5-(5-((1-methylethyl)amino)-1,3,4-oxadiazol-2-yl)-1H-indol-3-yl)-4(3H)-pyrimidinone] | 1.2 | 2.24 | 1.44 |  |  |  |  |  | 
8 | CC(C)Nc1nnc(-c2ccc3[nH]cc(NC(=O)C4CC4)c3c2)o1 [Example 291, N-(5-(5-(isopropylamino)-1,3,4-oxadiazol-2-yl)-1H-indol-3-yl)cyclopropanecarboxamide] | 53.1 | 25.6 | 1.44 |  |  |  |  |  | 
9 | COc1cc(-c2c[nH]c3ccc(-c4nnc(N)s4)cc23)nc(OC(C)C)n1 [Example 200, 5-(3-(6-methoxy-2-(1-methylethoxy)-4-pyrimidinyl)-1H-indol-5-yl)-1,3,4-thiadiazol-2-amine] |  |  |  | 15.4 | 30.1 | 3800 | 112 | 2.17 | 
10 | Cc1nnc(-c2ccc3[nH]cc(-c4cccc(OC(C)C)n4)c3c2)o1 [Example 42, 2-(3-(6-isopropoxypyridin-2-yl)-1H-indol-5-yl)-5-methyl-1,3,4-oxadiazole] |  |  |  | 21.2 | 38.6 | 15600 | 273 | 10 | 
11 | Nc1nnc(-c2ccc3[nH]cc(-c4cccc(F)c4F)c3c2)o1 [Example 78, 5-(3-(2,3-difluorophenyl)-1H-indol-5-yl)-1,3,4-oxadiazol-2-amine] |  |  |  | 103 | 164 | 18700 | 1110 | 54.3 | 
12 | CC(C)Oc1ccc(F)c(-c2c[nH]c3ccc(-c4nnc(N)o4)nc23)c1 [Example 125, 5-(3-(2-fluoro-5-(1-methylethoxy)phenyl)-1H-pyrrolo[3,2-b]pyridin-5-yl)-1,3,4-oxadiazol-2-amine] |  |  |  | 22.8 | 57 | 4430 |  | 7.68 | IC50 [5, 10]: 109 nM
13 | CNc1nnc(-c2ccc3[nH]cc(-c4nccc(N5CCCCC5)n4)c3c2)s1 [Example 135, N-methyl-5-(3-(4-(1-piperidinyl)-2-pyrimidinyl)-1H-indol-5-yl)-1,3,4-thiadiazol-2-amine] |  |  |  | 86.1 | 59.7 | > 31600 |  | 32.7 | IC50 [5, 10]: 8440 nM
14 | Nc1nnc(-c2ccc3[nH]cc(-c4csc(-n5ccccc5=O)n4)c3c2)s1 [Example 177, 1-(4-(5-(5-amino-1,3,4-thiadiazol-2-yl)-1H-indol-3-yl)-1,3-thiazol-2-yl)-2(1H)-pyridinone] |  |  |  | 45.8 | 91.2 | > 31600 | 538 | 30.5 | 
15 | C[C@H]1COCCN1c1ccnc(-c2c[nH]c3ccc(-c4nnc(N)o4)cc23)n1 [Example 91, 5-(3-(4-((3S)-3-methyl-4-morpholinyl)-2-pyrimidinyl)-1H-indol-5-yl)-1,3,4-oxadiazol-2-amine] |  |  |  | 1.96 | 1.07 | 1050 | 221 | 2.21 | 
16 | CNc1nnc(-c2ccc3[nH]cc(-c4cccc(N5CCCC5=O)n4)c3c2)s1 [Example 229, 1-(6-(5-(5-(methylamino)-1,3,4-thiadiazol-2-yl)-1H-indol-3-yl)-2-pyridinyl)-2-pyrrolidinone] |  |  |  | 28.8 | 80.4 | > 31600 | 312 | 6.73 | 
17 | Nc1nnc(-c2ccc3[nH]cc(-c4nccc(N5CCOCC5)n4)c3c2)s1 [Example 11, 5-(3-(4-morpholinopyrimidin-2-yl)-1H-indol-5-yl)-1,3,4-thiadiazol-2-amine] |  |  |  | 19.7 | 8.61 | 2200 | 911 | 7.69 | 
18 | Nc1nnc(-c2ccc3[nH]cc(-c4cncc(O[C@@H]5CCCNC5)n4)c3c2)o1 [Example 99, 5-(3-(6-((3R)-3-piperidinyloxy)-2-pyrazinyl)-1H-indol-5-yl)-1,3,4-oxadiazol-2-amine] |  |  |  | 6.77 | 12.9 | > 31600 |  | 12.4 | IC50 [5, 10]: 12200 nM
19 | Nc1nnc(-c2ccc3[nH]cc(-c4nccc(-c5ccccc5)n4)c3c2)o1 [Example 122, 5-(3-(4-phenyl-2-pyrimidinyl)-1H-indol-5-yl)-1,3,4-oxadiazol-2-amine] |  |  |  | 6.85 | 3.87 | 831 |  | 2.4 | IC50 [5, 10]: 132 nM

— patent US9321756B2, “Azole compounds as PIM inhibitors” (priority 2011, dated 2016)
